Source: patent US20060241108A1, “Substituted phenoxazines and acridones as inhibitors of AKT” (St. Jude Children's Research Hospital, priority 2005, published 2006)

Experiments:
[1] = tested on: mTOR (Ser2448 and Ser2481), rpS6 (Ser235/236) and p70S6 kinase (Thr389); assay: IGF-I induced phosphorylation of AKT downstream targets in Rh1 cells, Western blot; type: cell-based, human; details: 3.5 to 5.0 μM, 1 hour, Rh1 cells serum-free, IGF-I 10 minutes
Experimental: Cellular screening for inhibitors. Rh1, Rh18 and Rh30 cells can each be seeded at a density of 4×10^6/10-cm plate in serum-free medium for overnight attachment. The cells can then be exposed to 0.1% DMSO or to a test compound (for example, a phenoxazine or acridone compound) for one hour, then stimulated with Insulin-like growth factor-I (IGF-I) (10 ng/ml) for 10 minutes.
Western blot analysis. Cells are rapidly washed with ice-cold phosphate-buffered saline (PBS), placed on ice, and lysed in mammalian protein extraction reagent (M-PER; available from Pierce, Rockford, Ill.) containing one Complete™ mini protease inhibitor tablet (available from Boehringer Mannheim, Mannheim, Germany), 1 mM phenylmethylsulfonyl fluoride, 1 mM Na3VO4 and 1 mM NaF. Cellular debris is pelleted by centrifugation at 17,500×g for 10 minutes at 4° C. The protein concentration of the supernatants is measured by the bicinchoninic acid assay (e.g., using the BCA™ Protein Assay Kit, Pierce, Rockford, Ill., catalog number 23225 or 23227) using bovine serum albumin as the standard.
For the analysis of AKT, ERK-1/2, mTOR, p70S6 kinase, ribosomal protein S6 (rpS6 or S6), and glycogen synthase kinase 3 (GSK-3), equivalent amounts of protein can be separated on a 12% SDS-polyacrylamide gel (available from BioRad, Hercules, Calif.) by electrophoresis and subsequently transferred to a nitrocellulose membrane (also available from BioRad). […]

[2] = biological target: T1, recombinant p-110 gamma enzyme (Homo sapiens, UniProt P48736); assay: PI 3-kinase assay in vitro; type: biochemical; details: 5 μM; phosphatidylinositol substrate, [γ32P]-ATP, TLC
T1 construct: purchased AG Scientific, San Diego, Calif
T1 sequence (P48736 whole entry, species assumed): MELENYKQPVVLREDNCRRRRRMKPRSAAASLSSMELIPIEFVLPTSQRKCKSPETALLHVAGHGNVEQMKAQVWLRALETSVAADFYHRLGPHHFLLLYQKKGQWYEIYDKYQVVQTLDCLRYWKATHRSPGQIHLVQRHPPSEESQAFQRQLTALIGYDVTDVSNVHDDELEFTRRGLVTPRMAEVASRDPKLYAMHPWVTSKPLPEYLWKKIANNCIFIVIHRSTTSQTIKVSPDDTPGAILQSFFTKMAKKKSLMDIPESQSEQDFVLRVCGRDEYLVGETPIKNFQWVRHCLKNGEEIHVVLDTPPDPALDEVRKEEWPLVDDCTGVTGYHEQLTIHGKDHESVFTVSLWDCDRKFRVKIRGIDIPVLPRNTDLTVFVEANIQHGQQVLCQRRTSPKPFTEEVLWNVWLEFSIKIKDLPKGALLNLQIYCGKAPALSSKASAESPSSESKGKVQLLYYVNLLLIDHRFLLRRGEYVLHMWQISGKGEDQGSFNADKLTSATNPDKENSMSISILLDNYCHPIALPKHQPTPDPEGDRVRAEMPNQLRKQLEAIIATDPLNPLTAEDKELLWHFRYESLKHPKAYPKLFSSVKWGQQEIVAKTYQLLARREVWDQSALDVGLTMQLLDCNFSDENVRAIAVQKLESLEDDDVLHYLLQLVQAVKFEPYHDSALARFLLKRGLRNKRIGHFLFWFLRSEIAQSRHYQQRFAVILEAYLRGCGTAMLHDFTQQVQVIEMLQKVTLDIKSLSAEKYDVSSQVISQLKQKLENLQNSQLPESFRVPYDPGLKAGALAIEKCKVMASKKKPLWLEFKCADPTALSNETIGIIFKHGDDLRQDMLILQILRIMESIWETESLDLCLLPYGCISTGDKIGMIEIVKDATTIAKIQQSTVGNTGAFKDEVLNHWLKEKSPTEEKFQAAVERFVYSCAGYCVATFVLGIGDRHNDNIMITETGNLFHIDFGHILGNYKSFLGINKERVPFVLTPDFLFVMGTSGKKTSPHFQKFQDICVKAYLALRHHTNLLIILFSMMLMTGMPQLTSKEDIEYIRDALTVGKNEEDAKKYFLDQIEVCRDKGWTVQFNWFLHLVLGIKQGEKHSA
Experimental: PI 3-kinase assay. […] 10 μg of phosphatidylinositol (available from Sigma, St. Louis, Mo.) can then be added to each sample, and the incubation preferably continues on ice for an additional 15 minutes. ATP (final concentration 25 μM containing 30 μCi of [γ^32p]-ATP) can be added to each sample, and the reaction mixtures incubated at 37° C. for 10 minutes. Reactions can be terminated by adding 20 μl of 6 N hydrochloric acid. The sample is preferably vortexed, and lipids extracted into 300 μl of MeOH:CHCl3 (1:1) mixture. After mixing gently and spinning at 10,000×g for 5 minutes, 50 μl of the organic phase is preferably spotted onto a silica coated thin layer chromatography (TLC) plate (available from EMD, La Jolla, Calif.) and developed using a solvent system containing CHCl3:MeOH:H2O:NH4OH (60:47:11.3:2). The TLC plate can then be allowed to dry, and the bands analyzed using a Storm 860 phosphoimager (available from Amersham Biosciences, Sunnyvale, Calif.).
Lipids in such assays can be resolved by thin layer chromatography (TLC), and incorporated radiolabel quantitated using a phosphoimager.

Rh1 cells = assay: Cell growth inhibition, Rh1 cells; type: cell-based, human; details: complete medium, six days, nuclei counted
Experimental: (§1) Cell lines and growth conditions. The human cell lines Rh1, Rh18, and Rh30 (ATCC Deposit # CRL 2061) have been described, e.g., by Hazelton et al. Cancer Res 1987;47:4501-4507 and Hosoi et al. Cancer Res. 1999;59:886-894. Rh1, Rh18 and Rh30 cells can each be grown in antibiotic free RPMI-1640 medium (available from BioWhittaker, Walkersville, Md.), supplemented with 10% fetal bovine serum (available from HyClone Laboratories, Logan, Utah) and 2 mM L-glutamine (available from BioWhittaker, Walkersville, Md.) at 37° C. in an atmosphere of 5% CO2. For serum free experiments, cells can be cultured in modified N2E (MN2E) medium (DMEM/F-12, 1:1 mixture) (Sigma, St. Louis, Mo.) supplemented with 1 μg/ml human holo transferrin, 30 nM sodium selenite, 20 nM progesterone, 100 μM putrescine, 30 nM vitamin E phosphate, and 50 μM ethanolamine. […]
(§2) Cell growth inhibition. […] Growth can be assessed after lysing cells, and counting nuclei. […]
(§3) The effect(s) of compounds, including phenoxazine compounds such as those listed in Table I, above, on cell growth can be evaluated in cell-based assays such as the exemplary assays described here. Rh1, Rh18 and/or Rh30 cells grown in complete medium can be exposed to graded concentrations of test compound (e.g., from 0.1 to 25 μM) for six days, at which time the cells can be lysed and their growth assessed by counting nuclei. […]

Rh30 cells = assay: Cell growth inhibition, Rh30 cells; type: cell-based, human; details: complete medium, six days, nuclei counted
Experimental: as §1, §2, §3

| Compound | inhibition of IGF-I induced phosphorylation of mTOR, rpS6 and p70S6 kinase [1] | PI 3-kinase activity [2] | IC50 (Rh1 cells) | IC50 (Rh30 cells) |
| --- | --- | --- | --- | --- |
| CCN(CC)CCCCN1c2ccccc2Oc2ccc(Cl)cc21 [Compound 10B, 10-[4′-(N-diethylamino)butyl]-2-chlorophenoxazine] | markedly inhibited | comparable to the untreated sample | 2 µM | 6 µM |
| 10-[4′-[(β-hydroxyethyl)piperazino]butyl]-2-chlorophenoxazine [Compound 15B] | markedly inhibited | comparable to the untreated sample | 2 µM | 6 µM |
